{"source": "ChEMBL document CHEMBL5360649", "about": "“Potential Broad-Spectrum Antimicrobial, Wound Healing, and Disinfectant Cationic Peptide Crafted from Snake Venom” (J Med Chem, 2023)", "key": {"Cell membrane [1]": {"system": "Cell membrane", "experiment": "Induction of inner membrane permeabilization in methicillin-resistant Staphylococcus aureus assessed as increase in fluorescence at 0.5 to 1 times of MIC incubated for 60 mins by PI staining based fluorescence analysis", "format": "subcellular"}, "Staphylococcus aureus [2]": {"system": "Staphylococcus aureus", "experiment": "Antibacterial activity against patient-derived methicillin-resistant Staphylococcus aureus assessed as inhibition of bacterial growth at 25 to 100 uM incubated overnight by spotting assay", "format": "functional, organism-based", "details": "dose 25-100 µM"}, "Klebsiella pneumoniae [3]": {"system": "Klebsiella pneumoniae", "experiment": "Antibiofilm activity against preformed biofilm in Klebsiella pneumoniae assessed as decrease in cell viability at 0.5 times of MIC incubated overnight by MTT assay relative to control", "format": "functional"}, "Cell membrane [4]": {"system": "Cell membrane", "experiment": "Induction of outer membrane permeabilization in Klebsiella pneumoniae at 0.5 to 1 times of MIC incubated for 5 to 20 mins by fluorescence based NPN uptake assay", "format": "subcellular", "details": "time 5-20 min"}, "Staphylococcus aureus [5]": {"system": "Staphylococcus aureus", "experiment": "Antibiofilm activity in methicillin-resistant Staphylococcus aureus assessed as biofilm clearance incubated for 24 hrs by Congo red dye based fluorescence analysis", "format": "functional, organism-based"}, "Escherichia coli [6]": {"system": "Escherichia coli", "experiment": "Antibiofilm activity against Escherichia coli in the presence of Cl-", "format": "functional, organism-based"}, "Escherichia coli [7]": {"system": "Escherichia coli", "experiment": "Induction of morphological changes in Escherichia coli at MIC concentration incubated for 6 hrs by SEM analysis", "format": "functional, organism-based"}, "Rattus norvegicus [8]": {"species": "Rattus norvegicus", "experiment": "Induction of wound healing in surgically-induced Albino Wistar rat wound model assessed as proper formation of hair follicles at 10 uM measured after 11 days by H&E staining based analysis", "format": "functional", "details": "time 11.0 day"}, "Klebsiella pneumoniae [9]": {"system": "Klebsiella pneumoniae", "experiment": "Induction of morphological changes in carbapenem resistant Klebsiella pneumoniae ATCC BAA-1705 assessed as cellular defacement at MIC concentration incubated for 60 mins by SEM analysis", "format": "functional, organism-based"}, "Escherichia coli [10]": {"system": "Escherichia coli", "experiment": "Induction of resistance development in Escherichia coli assessed as change in MIC at 0.5 times of MIC incubated with compound for 12 hrs followed by replacement with fresh medium for 12 hrs and measured after 20 repeated cycles", "format": "functional, organism-based", "details": "time 240.0 hrs"}, "Rattus norvegicus [11]": {"species": "Rattus norvegicus", "experiment": "Induction of wound healing in surgically-induced Albino Wistar rat wound model inoculated with methicillin-resistant Staphylococcus aureus assessed as reduction in inflammatory cell infiltration at 10 uM measured after 11 days by H&E staining based analysis", "format": "functional", "details": "time 11.0 day"}, "NMDF": {"system": "NMDF", "experiment": "Induction of cell migration in NMDF cells at 5 uM incubated for 24 hrs by wound healing scratch/mirgation assay", "format": "functional, cell-based", "details": "Mus musculus"}, "Pseudomonas aeruginosa [12]": {"system": "Pseudomonas aeruginosa", "experiment": "Induction of morphological changes in Pseudomonas aeruginosa assessed as inhibition of cell division by measuring filamented cells at MIC concentration incubated for 60 mins by SEM analysis", "format": "functional, organism-based"}, "Cell membrane [13]": {"system": "Cell membrane", "experiment": "Induction of cytoplasmic membrane depolarization in Escherichia coli assessed as increase in fluorescence intensity at 0.5 to 1 times of MIC by DiSC3-5 dye based fluorescence method", "format": "subcellular"}, "Escherichia coli [14]": {"system": "Escherichia coli", "experiment": "Induction of morphological changes in Escherichia coli at MIC concentration incubated for 60 mins by SEM analysis", "format": "functional, organism-based"}, "Staphylococcus aureus [15]": {"system": "Staphylococcus aureus", "experiment": "Induction of morphological changes in methicillin-resistant Staphylococcus aureus assessed as abnormal cell shrinkage at MIC concentration incubated for 60 mins by SEM analysis", "format": "functional, organism-based"}, "Escherichia coli [16]": {"system": "Escherichia coli", "experiment": "Antibacterial activity against Escherichia coli assessed as cell division block by measuring cellular elongation at 0.5 to 1 times of MIC incubated for 30 mins by SYTO9/PI staining based fluorescence microscopic analysis", "format": "functional, organism-based"}, "Pseudomonas aeruginosa [17]": {"system": "Pseudomonas aeruginosa", "experiment": "Antibacterial activity against Pseudomonas aeruginosa assessed as inhibition of bacterial growth at 1.25 to 40 uM by microtiter plate reader analysis", "format": "functional, organism-based", "details": "dose 1.25-40 µM, time 0.5-8.5 hrs, TDE = time-dependent effect"}, "Staphylococcus aureus [18]": {"system": "Staphylococcus aureus", "experiment": "Induction of morphological changes in methicillin-resistant Staphylococcus aureus assessed as cellular destruction at MIC concentration incubated for 6 hrs by SEM analysis", "format": "functional, organism-based"}, "Rattus norvegicus [19]": {"species": "Rattus norvegicus", "experiment": "Induction of wound healing in surgically-induced Albino Wistar rat wound model assessed as proper formation of blood vessels at 10 uM measured after 11 days by H&E staining based analysis", "format": "functional", "details": "time 11.0 day"}, "Cell membrane [20]": {"system": "Cell membrane", "experiment": "Induction of outer membrane permeabilization in methicillin-resistant Staphylococcus aureus at 0.5 to 1 times of MIC incubated for 5 to 20 mins by fluorescence based NPN uptake assay", "format": "subcellular", "details": "time 5-20 min"}, "U-937": {"system": "U-937", "experiment": "Immunomodulatory activity in human U-937 cells assessed as effect on IL-6 expression level at 5 to 10 uM incubated for 24 hrs by radioimmunoprecipitation based dot-plot analysis", "format": "functional, cell-based", "details": "dose 5-10 µM"}, "Rattus norvegicus [21]": {"species": "Rattus norvegicus", "experiment": "Induction of wound healing in surgically-induced Albino Wistar rat wound model inoculated with methicillin-resistant Staphylococcus aureus assessed as reduction in inflammatory signs at 10 uM measured after 11 days by H&E staining based analysis", "format": "functional", "details": "time 11.0 day"}, "[22]": {"experiment": "Hemolytic activity in human RBC assessed as hemolysis at 25 uM incubated for 30 mins under shaking condition by multiplate reader analysis relative to control", "format": "toxicity, cell-based, Erythrocyte", "details": "human red blood cells (RBC), read-out: Activity"}, "Rattus norvegicus [23]": {"species": "Rattus norvegicus", "experiment": "Induction of wound healing in surgically-induced Albino Wistar rat wound model assessed as densely packed epithelium containing keratinocytes at 10 uM measured after 11 days by H&E staining based analysis", "format": "functional", "details": "time 11.0 day"}, "Staphylococcus aureus [24]": {"system": "Staphylococcus aureus", "experiment": "Antibacterial activity against patient-derived methicillin-resistant Staphylococcus aureus assessed as inhibition of bacterial growth incubated for 24 hrs by CLSI protocol based microdilution method", "format": "functional"}, "Pseudomonas aeruginosa [25]": {"system": "Pseudomonas aeruginosa", "experiment": "Induction of morphological changes in Pseudomonas aeruginosa assessed as cellular destruction at MIC concentration incubated for 6 hrs by SEM analysis", "format": "functional, organism-based"}, "Staphylococcus aureus [26]": {"system": "Staphylococcus aureus", "experiment": "Antibiofilm activity against methicillin-resistant Staphylococcus aureus assessed as biofilm eradication at 0.5 times of MIC incubated for 24 hrs by CV staining based analysis relative to control", "format": "functional"}, "Pseudomonas aeruginosa [27]": {"system": "Pseudomonas aeruginosa", "experiment": "Antibiofilm activity against Pseudomonas aeruginosa assessed as biofilm eradication at 1 times of MIC incubated for 24 hrs by CV staining based analysis relative to control", "format": "functional"}, "Escherichia coli [28]": {"system": "Escherichia coli", "experiment": "Antibacterial activity against Escherichia coli assessed as induction of cellular damage at MIC concentration incubated for 30 mins by SYTO9/PI staining based fluorescence microscopic analysis", "format": "functional, organism-based"}, "Pseudomonas aeruginosa [29]": {"system": "Pseudomonas aeruginosa", "experiment": "Induction of morphological changes in Pseudomonas aeruginosa at MIC concentration incubated for 60 mins by SEM analysis", "format": "functional, organism-based"}, "Pseudomonas aeruginosa [30]": {"system": "Pseudomonas aeruginosa", "experiment": "Antibiofilm activity against Pseudomonas aeruginosa assessed as biofilm eradication at 0.5 times of MIC incubated for 24 hrs by CV staining based analysis relative to control", "format": "functional"}, "Klebsiella pneumoniae [31]": {"system": "Klebsiella pneumoniae", "experiment": "Antibiofilm activity against Klebsiella pneumoniae assessed as eradication of preformed biofilm at 0.5 times of MIC incubated for 24 hrs by CV staining based analysis relative to control", "format": "functional"}, "Staphylococcus aureus [32]": {"system": "Staphylococcus aureus", "experiment": "Bactericidal activity against patient-derived Staphylococcus aureus assessed as reduction in bacterial growth incubated for 24 hrs by Mueller Hinton Agar based plate analysis", "format": "functional"}, "Escherichia coli [33]": {"system": "Escherichia coli", "experiment": "Induction of morphological changes in Escherichia coli assessed as cellular destruction at MIC concentration incubated for 6 hrs by SEM analysis", "format": "functional, organism-based"}, "Klebsiella pneumoniae [34]": {"system": "Klebsiella pneumoniae", "experiment": "Antibiofilm activity against Klebsiella pneumoniae in the presence of Cl-", "format": "functional, organism-based"}, "Klebsiella pneumoniae [35]": {"system": "Klebsiella pneumoniae", "experiment": "Bactericidal activity against Klebsiella pneumoniae ATCC BAA-1705 assessed as reduction in bacterial growth incubated for 24 hrs by Mueller Hinton Agar based plate analysis", "format": "functional"}, "Pseudomonas aeruginosa [36]": {"system": "Pseudomonas aeruginosa", "experiment": "Antibiofilm activity against Pseudomonas aeruginosa in the presence of Na+", "format": "functional, organism-based"}, "Escherichia coli [37]": {"system": "Escherichia coli", "experiment": "Antibacterial activity against Escherichia coli ATCC CRM-11229 assessed as inhibition of bacterial growth incubated for 24 hrs by CLSI protocol based microdilution method", "format": "functional"}}, "note": "The source made the active and inactive calls. The rule behind the calls is not given here.", "data": [{"substance": "H-FLPIIKWVKKFFWRWR-OH", "values": [{"measurement": "Activity", "setting": "Cell membrane [1]", "result": "Active"}, {"measurement": "Activity", "setting": "Staphylococcus aureus [2]", "result": "Active"}, {"measurement": "Activity", "setting": "Klebsiella pneumoniae [3]", "result": 79.96, "unit": "%"}, {"measurement": "Activity", "setting": "Cell membrane [4]", "result": "Active"}, {"measurement": "Activity", "setting": "Staphylococcus aureus [5]", "result": "Dose-Dependent Effect"}, {"measurement": "Activity", "setting": "Escherichia coli [6]", "result": "Active"}, {"measurement": "Activity", "setting": "Escherichia coli [7]", "result": "Active"}, {"measurement": "Activity", "setting": "Rattus norvegicus [8]", "result": "Active"}, {"measurement": "Activity", "setting": "Klebsiella pneumoniae [9]", "result": "Active"}, {"measurement": "Activity", "setting": "Escherichia coli [10]", "result": "inactive"}, {"measurement": "Activity", "setting": "Rattus norvegicus [11]", "result": "Active"}, {"measurement": "Activity", "setting": "NMDF", "result": "inactive"}, {"measurement": "Activity", "setting": "Pseudomonas aeruginosa [12]", "result": "Active"}, {"measurement": "Activity", "setting": "Cell membrane [13]", "result": "Active"}, {"measurement": "Activity", "setting": "Escherichia coli [14]", "result": "Active"}, {"measurement": "Activity", "setting": "Staphylococcus aureus [15]", "result": "Active"}, {"measurement": "Activity", "setting": "Escherichia coli [16]", "result": "Active"}, {"measurement": "Activity", "setting": "Pseudomonas aeruginosa [17]", "result": "Tde"}, {"measurement": "Activity", "setting": "Staphylococcus aureus [18]", "result": "Active"}, {"measurement": "Activity", "setting": "Rattus norvegicus [19]", "result": "Active"}, {"measurement": "Activity", "setting": "Cell membrane [20]", "result": "Active"}, {"measurement": "Activity", "setting": "U-937", "result": "Active"}, {"measurement": "Activity", "setting": "Rattus norvegicus [21]", "result": "Active"}, {"measurement": "hemolysis at 0.5 h, 25 µM", "setting": "[22]", "result": 20.4, "unit": "%"}, {"measurement": "Activity", "setting": "Rattus norvegicus [23]", "result": "Active"}, {"measurement": "MIC", "setting": "Staphylococcus aureus [24]", "result": 6, "unit": "µM"}, {"measurement": "Activity", "setting": "Pseudomonas aeruginosa [25]", "result": "Active"}, {"measurement": "Activity", "setting": "Staphylococcus aureus [26]", "result": "~70", "unit": "%"}, {"measurement": "Activity", "setting": "Pseudomonas aeruginosa [27]", "result": "<=72.73%"}, {"measurement": "Activity", "setting": "Escherichia coli [28]", "result": "Active"}, {"measurement": "Activity", "setting": "Pseudomonas aeruginosa [29]", "result": "Active"}, {"measurement": "Activity", "setting": "Pseudomonas aeruginosa [30]", "result": "~50", "unit": "%"}, {"measurement": "Activity", "setting": "Klebsiella pneumoniae [31]", "result": "~56", "unit": "%"}, {"measurement": "MBC", "setting": "Staphylococcus aureus [32]", "result": 8, "unit": "µM"}, {"measurement": "Activity", "setting": "Escherichia coli [33]", "result": "Active"}, {"measurement": "Activity", "setting": "Klebsiella pneumoniae [34]", "result": "Active"}, {"measurement": "MBC", "setting": "Klebsiella pneumoniae [35]", "result": 11, "unit": "µM"}, {"measurement": "Activity", "setting": "Pseudomonas aeruginosa [36]", "result": "Active"}, {"measurement": "MIC", "setting": "Escherichia coli [37]", "result": 3.5, "unit": "µM"}]}]}
